{
  "source": "patent US20230321008A1",
  "about": "“INHIBITORS OF ACID SPHINGOMYELINASE FOR PREVENTING AND TREATING THE COVID-19 DISEASE” (priority 2020, published 2023)",
  "origin": "cited, not measured here",
  "key": {"COVID-19": {"tested_on": "COVID-19", "details": "randomized double-blind controlled study; cited from earlier work"}, "[1]": {"target": "T1, acid sphingomyelinase (ASM) (Homo sapiens, UniProt P17405)", "T1 sequence (P17405 47-631)": "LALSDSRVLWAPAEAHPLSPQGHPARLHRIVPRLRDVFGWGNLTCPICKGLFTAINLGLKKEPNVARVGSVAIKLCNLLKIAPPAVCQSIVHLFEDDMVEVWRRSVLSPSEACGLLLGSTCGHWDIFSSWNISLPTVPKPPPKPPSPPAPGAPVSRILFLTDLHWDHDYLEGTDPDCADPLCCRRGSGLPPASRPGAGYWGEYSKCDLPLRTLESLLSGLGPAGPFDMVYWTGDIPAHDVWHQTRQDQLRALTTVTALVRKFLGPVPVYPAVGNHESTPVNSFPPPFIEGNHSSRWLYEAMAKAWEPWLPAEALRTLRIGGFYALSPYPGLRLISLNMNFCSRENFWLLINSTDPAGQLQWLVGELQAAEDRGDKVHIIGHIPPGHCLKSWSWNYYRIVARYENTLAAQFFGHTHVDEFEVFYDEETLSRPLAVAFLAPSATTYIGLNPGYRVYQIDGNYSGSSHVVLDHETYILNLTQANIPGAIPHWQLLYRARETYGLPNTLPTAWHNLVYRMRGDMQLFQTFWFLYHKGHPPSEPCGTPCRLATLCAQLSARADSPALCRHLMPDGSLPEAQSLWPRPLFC", "details": "cited from earlier work"}},
  "data": [
    {"smiles": "COCCCC/C(=N\\OCCN)c1ccc(C(F)(F)F)cc1", "note": "[fluvoxamine]", "values": [
      {"measurement": "Effect on COVID-19 disease progression (in words)", "setting": "COVID-19", "value": "significant protective effects on COVID-19 disease progression"},
      {"measurement": "In vitro inhibition of acid sphingomyelinase (in words)", "setting": "[1]", "value": "in vitro inhibit acid sphingomyelinase with varying degrees"}
    ]}
  ]
}
